Assays:
[1] = Metal response of PAN-7OH, absorbance at pH 7; type: binding; conditions: 25 μM PAN-7OH, 250 μM metal ion, pH 7 buffer, 2 mM Triton X-100
Experimental: (§1) Solutions were made containing 25 μM PAN-7OH and 250 μM metal ion (excess amount) in pH 7 buffer containing 2 mM Triton X-100.

[2] = Metal response of PAN-7OH, absorbance at pH 7; type: binding; conditions: 25 μM PAN-7OH, 250 μM metal ion, pH 7 buffer, 2 mM Triton X-100; remark: listed apart in the source
Experimental: as §1

[3] = Metal response of PAN-7OH, absorbance at pH 7; type: binding; conditions: 25 μM PAN-7OH, 250 μM metal ion, pH 7 buffer, 2 mM Triton X-100; remark: listed apart in the source
Experimental: as §1

[4] = Metal response of PAN-7OH, absorbance at pH 7; type: binding; conditions: 25 μM PAN-7OH, 250 μM metal ion, pH 7 buffer, 2 mM Triton X-100; remark: listed apart in the source
Experimental: as §1

[5] = Metal response of PAN-7OH, absorbance at pH 7; type: binding; conditions: 25 μM PAN-7OH, 250 μM metal ion, pH 7 buffer, 2 mM Triton X-100; remark: listed apart in the source
Experimental: as §1

[6] = Metal response of PAN-7OH, absorbance at pH 7; type: binding; conditions: 25 μM PAN-7OH, 250 μM metal ion, pH 7 buffer, 2 mM Triton X-100; remark: listed apart in the source
Experimental: as §1

[7] = Metal response of PAN-7OH, absorbance at pH 7; type: binding; conditions: 25 μM PAN-7OH, 250 μM metal ion, pH 7 buffer, 2 mM Triton X-100; remark: listed apart in the source
Experimental: as §1

[8] = Metal response of PAN-7OH, absorbance at pH 7; type: binding; conditions: 25 μM PAN-7OH, 250 μM metal ion, pH 7 buffer, 2 mM Triton X-100; remark: listed apart in the source
Experimental: as §1

[9] = Metal response of PAN-7OH, absorbance at pH 7; type: binding; conditions: 25 μM PAN-7OH, 250 μM metal ion, pH 7 buffer, 2 mM Triton X-100; remark: listed apart in the source
Experimental: as §1

[10] = Metal response of PAN-7OH, absorbance at pH 7; type: binding; conditions: 25 μM PAN-7OH, 250 μM metal ion, pH 7 buffer, 2 mM Triton X-100; remark: listed apart in the source
Experimental: as §1

[11] = Metal response of PAN-7OH, absorbance at pH 7; type: binding; conditions: 25 μM PAN-7OH, 250 μM metal ion, pH 7 buffer, 2 mM Triton X-100; remark: listed apart in the source
Experimental: as §1

[12] = Metal response of PAN-7OH, absorbance at pH 7; type: binding; conditions: 25 μM PAN-7OH, 250 μM metal ion, pH 7 buffer, 2 mM Triton X-100; remark: listed apart in the source
Experimental: as §1

[13] = Metal response of PAN-7OH, absorbance at pH 7; type: binding; conditions: 25 μM PAN-7OH, 250 μM metal ion, pH 7 buffer, 2 mM Triton X-100; remark: listed apart in the source
Experimental: as §1

[14] = Protonation states of free PAN-7OH, pKA; type: physicochemical; conditions: free dye; site 1-OH (Metal Binding)
Experimental: The acid dissociation constants (pKA) and spectral profiles were determined for PAN-70H. PAN-7OH has three protonation sites: The heterocyclic nitrogen in the pyridyl moiety, and the two hydroxyl groups on the naphthalene ring. […] The latter group can potentially be used for covalent attachment of the sensor to a substrate.
The buffer reagents were treated with Chelex-100 to remove trace metal impurities. The samples were prepared containing 25 μM PAN-7OH in a 0.1 M pH buffer containing 2 mM Triton X-100 surfactant.
The data was analyzed using ReactLab Equilibria to determine the resulting pKA values. PAN-7OH has three protonation sites, so four species were used for the analysis model. The pKA values were assigned using values from well-known molecules with a similar structure. […] No error propagation calculations were performed here.

[15] = Protonation states of Zn-(PAN-7OH) complexes

SMILES: Oc1ccc2ccc(O)c(N=Nc3ccccn3)c2c1 [PAN-7OH]
- absorbance change relative to the free dye [1]: red-shifted absorbance
- absorbance change relative to the free dye ([1]; minor): red-shifted absorbance
- absorbance change relative to the free dye [2]: red-shifted absorbance
- absorbance change relative to the free dye [3]: red-shifted absorbance
- absorbance change relative to the free dye [4]: red-shifted absorbance
- absorbance change relative to the free dye [5]: red-shifted absorbance
- absorbance change relative to the free dye [6]: red-shifted absorbance
- absorbance change relative to the free dye [7]: blue-shifted absorbance
- absorbance change relative to the free dye [8]: blue-shifted absorbance
- absorbance change relative to the free dye [9]: did not exhibit an appreciable absorbance change
- absorbance change relative to the free dye [10]: did not exhibit an appreciable absorbance change
- absorbance change relative to the free dye [11]: did not exhibit an appreciable absorbance change
- absorbance change relative to the free dye [12]: did not exhibit an appreciable absorbance change
- absorbance change relative to the free dye [13]: did not exhibit an appreciable absorbance change
- pKA [14]: 12.258
- pH at which the Zn-(PAN-7OH) complexes decomposed, strongly alkaline conditions [15]: > 12 pH
- pH at which the Zn-(PAN-7OH) complexes decomposed, weakly acidic conditions [15]: < 6 pH
- Acidic Dissociation ([15]; Zn(PAN-7OH)2H2 decomposition under acidic conditions, midpoint of species distribution curve): 5.272
- Alkaline Dissociation ([15]; Zn(PAN-7OH)2^2− decomposition, zinc hydroxide formation, strongly alkaline conditions, midpoint of curve): 13.164
- Complex pKA ([15]; non-binding hydroxyl group in the Zn-(PAN-7OH) complex, 20 μM PAN-7OH, 20 μM zinc): 10.449
